Where a name gives a salt, the structure may show the parent alone.
Tests used:
[1] = tested on: Mongrel dogs (left ventricular pressure, dp/dt max); assay: Cardiotonic activity (dp/dt max change, anesthetized dogs, i.v.); type: in vivo; conditions: Canis lupus familiaris, intravenous, read-out: dp/dt M.C. (percentage of dp/dt max changes)
Experimental: Test Method A (Cardiotonic activity): Mongrel dogs of either sex were anesthetized with sodium pentobarbital, 35 mg/kg, i.p. The animals were allowed to breathe spontaneously. The left carotid artery was isolated and a catheter (USCI, #8F) filled with heparinized saline was inserted and advanced into the left ventricle. the catheter was connected to a pressure transducer (Nihonkohden, MPU-0.5A) to measure the left ventricular pressure, from which dp/dt max was derived by analog computing. To measure the systemic blood pressure the left femoral artery was cannulated. The blood pressure pulse was used to trigger a heart rate meter. Another catheter was positioned in the vena cave through right femoral vein for injection of drugs. Systemic blood pressure, left ventricular pressure, dp/dt max and heart rate were recorded simultaneously on a polygram (Nihonkohden, RJG-4008). Test compound was dissolved in distilled water (0.2 ml/kg) or dimethyl sulfoxide (0.04 ml/kg) and injected into the femoral veing. The parameters after dosing were compared with those during the predosing period. Test results were represented in terms of percentage of dp/dt max changes (dp/dt M.C) calculated by following formula, and are shown in table 1. [formula]

[2] = tested on: platelet aggregation induced by adenosine diphosphate (ADP); assay: Anti-platelet activity: ADP-induced aggregation of rabbit platelet rich plasma; type: cell-based; conditions: Oryctolagus cuniculus, 2 min, rabbit PRP, ADP 2.5 μM, pH 7.4, 37° C., read-out: ID50 ADP
Experimental: (§1) Test Method B (Anti-platellet activity):
(§2) Platelet rich plasma (PRP) which contains 6.5-7.5×10^8 platelet/ml was prepared from rabbit blood. To the 200 μl of PRP, 5 μl of calcium chloride (1 mM) and 50 μl of pH 7.4 Tris-acetate solution (5 mM) containing 120 mM NaCl and test compound were added successively, and then stirred for 2 min. at 37° C. To the solution, 5 μl of adenosine diphosphate (ADP) (2.5 μM) or collagen (2.5 μg/ml) was added as an aggregation inducer. Aggregation was measured by using an aggregometer (NKK HEMA TRACER 1).

[3] = tested on: platelet aggregation induced by collagen; assay: Anti-platelet activity: collagen-induced aggregation of rabbit platelet rich plasma; type: cell-based; conditions: Oryctolagus cuniculus, 2 min, rabbit PRP, collagen 2.5 μg/ml, pH 7.4, 37° C., read-out: ID50 Collagen
Experimental: as §1, §2

[4] = tested on: Mongrel dogs (cerebral blood flow); assay: Cerebrovascular vasodilative activity (cerebral blood flow, anesthetized dogs, i.v.); type: in vivo; conditions: intravenous
Experimental: Test Method C (Cerebrovescular vasodilative activity):
Mongrel dogs of either sex were anesthetized with sodium pentobarbital (35 mg/kg. i.p.). After the external carotid artery was ligated, a flowmeter probe was fitted to the common carotid artery. Polyethylene cannulas were inserted in the femoral artery for measurement of blood pressure and in the saphenous vein for injection of drug. Blood pressure was measured with a pressure transducer and the arterial pulse was also used to trigger a heart rate meter. Blood pressure, heart rate and cerebral blood flow (C.B.F.) were recorded on a polygraph.
Test compound was dissolved in an equimolar solution of hydrochloric acid and diluted with water (0.2 ml/kg), and injected intravenously. The prarmeters after dosing were compared with those during the predosing period.

[5] = tested on: uninephrectomized DOCA/saline male Wistar rats (mean arterial pressure); assay: Antihypertensive activity (DOCA hypertensive rats, oral); type: in vivo; conditions: 1.0 mg/kg
Experimental: Test Method D (Antihypertensive activity):
Five-week old male Wistar rats were uninephrectomized under anesthesia. Deoxycorticosterone acetate (DOCA) (30 mg/kg), suspended in peanut oil, was injected subcutaneously twice a week and 1% saline was substituted for the drinking water. Animals with mean blood pressure 150-200 mmHg were used for experiment between 5 and 7 weeks after surgery.
The test compounds were administered orally. Blood pressure was measured at the femoral artery by means of a pressure transducer and recorded as electrically integrated values of mean arterial pressure.

COc1ccc(-c2cc(=Nc3c(C)cc(C)cc3C)n(C)c(=O)[nH]2)cc1OC [Example 64, 3,4-Dihydro-6-(3,4-dimethoxyphenyl)-3-methyl-4-(2,4,6-trimethylphenylimino)-2(1H)-pyrimidinone]
change in vivo at 0.1 mg/kg [1]: 98% | change in vivo at 1 mg/kg [1]: 93%

COc1ccc(-c2cc(=Nc3c(C)cc(C)cc3C)n(C)c(=O)n2C)cc1OC [Example 48, 3,4-dihydro-6-(3,4-dimethoxyphenyl)-1,3-dimethyl-4-(2,4,6-trimethylphenylimino)-2(1H)-pyrimidinone]
change in vivo at 0.01 mg/kg [1]: 43% | IC50 [2]: 240 nM | IC50 [3]: 150 nM | C.B.F. increase ([4]; 0.01 mg/kg): 40.0% | C.B.F. increase ([4]; 0.1 mg/kg): 57.0%

CCn1c(-c2ccc(OC)c(OC)c2)cc(=Nc2c(C)cc(C)cc2C)n(C)c1=O [Example 72, 3,4-dihydro-6-(3,4-dimethoxyphenyl)-1-ethyl-3-methyl-4-(2,4,6-trimethylphenylimino)-2(1H)-pyrimidinone]
change in vivo at 0.01 mg/kg [1]: 12% | change in vivo at 0.1 mg/kg [1]: 95% | IC50 [2]: 790 nM | IC50 [3]: 170 nM | C.B.F. increase ([4]; 0.1 mg/kg): 35.0% | C.B.F. increase ([4]; 1.0 mg/kg): 59.0% | Effect Max (maximum decrease of blood pressure) [5]: 38.0%

COc1cc(OC)c(N=c2cc(-c3ccc(OC)c(OC)c3)n(C)c(=O)n2C)c(OC)c1 [Example 57, 3,4-Dihydro-6-(3,4-dimethoxyphenyl)-1,3-dimethyl-4-(2,4,6-trimethoxyphenylimino)-2(1H)-pyrimidinone]
change in vivo at 0.1 mg/kg [1]: 60% | change in vivo at 1 mg/kg [1]: 126% | IC50 [2]: 300 nM | IC50 [3]: 420 nM | C.B.F. increase ([4]; 0.01 mg/kg): 59.0% | C.B.F. increase ([4]; 0.1 mg/kg): 57.0% | Effect Max (maximum decrease of blood pressure) [5]: 44.0%

COc1ccc(-c2cc(=Nc3ccc(Cl)cc3C)n(C)c(=O)n2C)cc1OC [Example 49, 4-(4-Chloro-2-methylphenylimino)-3,4-dihydro-6-(3,4-dimethoxyphenyl)-1,3-dimethyl-2(1H)-pyrimidinone]
change in vivo at 0.1 mg/kg [1]: 68%

CCCn1c(-c2ccc(OC)c(OC)c2)cc(=Nc2c(C)cc(C)cc2C)n(C)c1=O [Example 65, 3,4-Dihydro-6-(3,4-dimethoxyphenyl)-3-methyl-1-n-propyl-4-(2,4,6-trimethylphenylimino)-2(1H)-pyrimidinone]
change in vivo at 0.1 mg/kg [1]: 50% | change in vivo at 1 mg/kg [1]: 206%

Nc1cc(-c2ccncc2)c[nH]c1=O [Amrinone, 3-Amino-5-(4-pyridyl)-2(1H)-pyridinone, reference compound]
change in vivo at 0.1 mg/kg [1]: 9% | change in vivo at 1 mg/kg [1]: 80%

COc1ccc(-c2cc(=Nc3ccc(O)cc3)n(C)c(=O)n2C)cc1OC [Example 59, 3,4-Dihydro-6-(3,4-dimethoxyphenyl)-1,3-dimethyl-4-(4-hydroxyphenylimino)-2(1H)-pyrimidinone]
change in vivo at 0.1 mg/kg [1]: 57% | change in vivo at 1 mg/kg [1]: 158% | IC50 [2]: 3600 nM | IC50 [3]: 230 nM

COc1ccc(-c2cc(=Nc3c(C)cc(C)cc3C)n(C)c(=O)n2C)cc1 [Example 62, 3,4-Dihydro-1,3-dimethyl-6-(4-methoxyphenyl)-4-(2,4,6-trimethylphenylimino)-2(1H)-pyrimidinone]
change in vivo at 1 mg/kg [1]: 102%

COc1ccc(-c2cc(=Nc3c(C)cccc3C)n(C)c(=O)n2C)cc1OC [Example 58, 3,4-Dihydro-6-(3,4-dimethoxyphenyl)-1,3-dimethyl-4-(2,6-dimethylphenylimino)-2(1H)-pyrimidinone]
change in vivo at 0.1 mg/kg [1]: 84% | change in vivo at 1 mg/kg [1]: 145% | IC50 [2]: 340 nM | IC50 [3]: 190 nM

COc1ccc(-c2cc(=Nc3cccnc3)n(C)c(=O)n2C)cc1OC [Example 50, 3,4-dihydro-6-(3,4-dimethoxyphenyl)-1,3-dimethyl-4-(3-pyridylimino)-2(1H)-pyrimidinone dihydrochloride]
change in vivo at 1 mg/kg [1]: 98%

COc1ccc(-c2cc(=Nc3cc(OC)c(OC)c(OC)c3)n(C)c(=O)n2C)cc1OC [Example 56, 3,4-Dihydro-6-(3,4-dimethoxyphenyl)-1,3-dimethyl-4-(3,4,5-trimethoxyphenylimino)-2(1H)-pyrimidinone]
change in vivo at 0.1 mg/kg [1]: 44% | change in vivo at 1 mg/kg [1]: 88% | C.B.F. increase ([4]; 0.1 mg/kg): 50.0% | C.B.F. increase ([4]; 1.0 mg/kg): 52.0%

COc1ccc(-c2cc(=Nc3ccccc3)n(C)c(=O)n2C)cc1OC [Example 55, 3,4-Dihydro-6-(3,4-dimethoxyphenyl)-1,3-dimethyl-4-phenylimino-2(1H)-pyrimidinone]
C.B.F. increase ([4]; 0.1 mg/kg): 38.0% | C.B.F. increase ([4]; 1.0 mg/kg): 77.0%

COc1ccc(-c2cc(=Nc3c(C)cc(C)cc3C)[nH]c(=O)n2C)cc1OC [Example 69, 3,4-Dihydro-6-(3,4-dimethoxyphenyl)-1-methyl-4-(2,4,6-trimethylphenylimino)-2(1H)-pyrimidinone]
change in vivo at 0.01 mg/kg [1]: 45% | change in vivo at 0.1 mg/kg [1]: 42%

Reference: patent US4746664A, “Substituted-3,4-dihydro-4-(2,4,6-trimethoxyphenylimino)-2(1H)-pyrimidone s useful as cardiotonic, antihypertensive, cerebrovascular vasodilator and anti-platelet agent” (Fujisawa Pharmaceutical Co., Ltd., priority 1983, dated 1988)
